In one assay the test system is 15N-Orf63 dimer. In words: 15N-HSQC mixing experiment with ubiquitin fusion proteins. Format: binding, lambda bacteriophage. The conditions noted are these: 2:1 ubiquitin fusion to 15N-Orf63 dimer, 5 mM Tris-Cl pH 7.4, 50 mM NaCl. As for the experimental part: Amino acid substitution mutants were prepared using the Q5 mutagenesis method (New England Biolabs) with oligonucleotides from IDT. […] At an A600 of 0.8, expression was induced by the addition of 1 mM isopropyl thiogalactoside (IPTG), and the culture was grown for 3 h further before harvesting. Detailed information regarding the purification of this fragment by nickel affinity and gel filtration chromatography has been published previously. For NMR spectroscopy, a uniformly ^13C, ^15N isotopically labelled protein sample was made from a 1 L culture containing M9 minimal media salts supplemented with 3 g of ^13C-glucose (Sigma-Aldrich), 1 g of ^15N ammonium chloride (Sigma-Aldrich) and 1 g of ^13C,^15N Celtone algal extract (Cambridge Isotopes). Natural abundance Orf63 proteins were prepared using a similar protocol except cultures were grown in LB media. Protein concentrations were estimated by UV absorbance at 280 nm. […]
design ubiquitin […]
control ubiquitin […]
(a) A mixing experiment was performed with 15N-Orf63 and a Ubiquitin-fusion protein with a C-terminal extension corresponding to a designed peptide, or an unrelated peptide control. The mixing ratio was 2:1 (Ubiquitin fusion […]
(b,c) 15N-HSQC spectra of 15N-Orf63
(blue) and 15N-Orf63 mixed with a Ubiquitin fusion protein. Asterisks denote peaks that were […]

Another assay deals with Orf63. The assay can be described thus: 1H,15N-HSQC comparison of Orf63-linker-peptide hybrid protein with Orf63. The class given is binding, lambda bacteriophage. The following applies: 0.15 mM 15N-labeled 6xHis-Flag-Orf63-linker-peptide vs 0.15 mM 15N-labeled 6xHis-Flag-Orf63.
The next assay deals with 15N-Orf63. The assay can be described thus: 15N-HSQC titration / chemical shift perturbation (CSP) mapping of peptide binding. Details: species or system lambda bacteriophage. The protocol: (a) ^1H-^15N chemical shift perturbations (CSPs) measured between ^15N-Orf63 free, and in complex with a unlabelled designed peptide. Blue shading highlights a CSP > 0.05.
A titration was performed by acquiring a series of ^15N-HSQC spectra of 0.48 mM ^15N-Orf63 (monomeric concentration) with 0.12, 0.24, 0.36, 0.48, and 0.60 mM peptide ([…]) manufactured by GenScript (Piscataway, NJ) in phosphate buffered saline pH 7.4. Assignments of peptide-bound ^15N-Orf63, particularly through two helical regions, were made by walking through HN-HN correlations in a 3D 15N-NOESY spectrum.
Most resonances during the […]
throughout the two a-helical regions, was confirmed by an HN-HN walk through a 3D 15N-NOESY spectrum. Unassigned resonances N-terminal helix a1 and C-terminal to helix a2 are likely unstructured due to the absence of i,i+3, i,i+4, and HN-HN NOEs. The residue numbering follows the PDB file 8DSB and the expressed protein with N-terminal affinity […]
(1 picture or pasted object on this page, not shown here)

Assay [1] addresses fluorescent designed Orf63 binding peptide FAM-Ahx-…. In words: fluorescence polarisation; 10 nM fluorescent peptide with varying concentrations of Orf63 (per protomer) in PBS pH 7.4; 1:1 binding function, each peptide assumed to bind each protomer independently. A general note: Polarisation of emitted light reports the rotation of a fluorescent probe.
For assay [2], the target named is 6xHis-Flag affinity tagged Orf63 from lambda bacteriophage (phage λ). The assay can be described thus: SEC-MALS; 2 mg/mL Orf63; 10 mM Tris-HCl, 0.15 M NaCl, pH 8.0; SEC300A column at 0.2 mL/min. Background: Size exclusion chromatography separates by hydrodynamic size, large species first.
Assay [3] relates to lysogenic or lytic developmental outcome of phage λ infection. The conditions noted are these: period to new viral progeny, bacterial survivors, conversion to lysogens; ref [8],[11]; cited from earlier work.

With “DTKELILAIARKVKEMIKNS [Ubiquitin fusion protein]”, the “line broadening / chemical shift changes” value in the assay on 15N-Orf63 dimer is on record as “significant line broadening suggesting binding was occurring”; in the assay on 15N-Orf63 dimer (listed as design), “severely line broadened”. As for DTKELILAIARKVKEMIKNS [hybrid protein], the “spectrum of hybrid protein relative to Orf63” value with Orf63 is “resembled Orf63 with additional peaks from the helical ligand along with a set of chemical shift changes”. For the molecule MAIAHAATEYVFADFVLK [reference compound], in the assay on 15N-Orf63 dimer, the “line broadening / chemical shift changes” value is listed as “no chemical shift or line broadening changes”. For the molecule “DTKELILAIARKVKEMIKNS [synthetic peptide]”, the “saturation of the complex” value with 15N-Orf63 (0.48 mM 15N-Orf63 (monomeric), 0.12-0.60 mM peptide, PBS pH 7.4, between 1:1 and 1.2:1 peptide:protomer ratio) is “the complex was deemed to be saturated with peptide ligand”. In the assay with 15N-Orf63 (0.48 mM 15N-Orf63 (monomeric), titrated with peptide, PBS pH 7.4), the “exchange regime of CSPs, majority of resonances” value is recorded as “fast exchange”. Besides, in the assay with 15N-Orf63 (0.48 mM 15N-Orf63 (monomeric), titrated with peptide, PBS pH 7.4, largest measured CSPs), the “exchange regime of CSPs, minority of resonances in helix α2 from S45 onwards” value is “slow exchange”. The “observed interaction surface (CSPs mapped on the structure)” value in the assay on 15N-Orf63 (0.48 mM 15N-Orf63, PBS pH 7.4) is reported as “consistent with the predicted interaction surface of the model”. Broadly, the Kd is the constant that tells how readily two partners part at equilibrium. Read a high Kd as a looser complex. One may read the stoichiometry N as the number of molecules, sites or subunits per partner or assembly. In the case of “6xHis-Flag affinity tagged Orf63 from lambda bacteriophage (natural protein)”, the Kd in assay [1] was 3.1 µM. Further, the stoichiometry N in assay [2] is 2.

B1: Ea22: protein encoded between the exo and xis genes of phage λ (protein, UniProt P03756 1-182, looked up)
Protein ea22: MSEINSQALREAAEQAMHDDWGFDADLFHELVTPSIVLELLDERERNQQYIKRRDQENEDIALTVGKLRVELETAKSKLNEQREYYEGVISDGSKRIAKLESNEVREDGNQFLVVRHPGKTPVIKHCTGDLEEFLRQLIEQDPLVTIDIITHRYYGVGGQWVQDAGEYLHMMSDAGIRIKGE
On to B1, for which, in assay [3], the lytic/lysogenic tendency entry is “pro-lysogenic”.

Source of the values: paper PMC10869804 (Scientific Reports, 2024).
